# Laboratory results from PubChem BioAssay (NCI).
#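 Briefly, cells in 96-well plates were exposed to five compound concentrations for 48 h, and endpoints were estimated by linear interpolation. TGI marks complete inhibition of growth.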
# Assays:
# Assay in all cases: inhibition of tumour cell growth, NCI panel, 48 h
# [1] = system: SK-MEL-2 melanoma
# [2] = system: SR leukemia
# [3] = system: HOP-62 NSCLC
# [4] = system: K-562 leukemia
# [5] = system: UACC-62 melanoma
# [6] = system: HL-60(TB) leukemia
# [7] = system: SK-MEL-5 melanoma
# [8] = system: RPMI-8226 leukemia
# [9] = system: NCI-H460 lung
# [10] = system: A549 NSCLC
# [11] = system: OVCAR-8 ovarian
# [12] = system: PC-3 prostate
# [13] = system: MCF7 breast
# [14] = system: MDA-MB-435
# [15] = system: BT-549 breast
# [16] = system: LOX IMVI melanoma
# [17] = system: HS 578T breast
SMILES,TGI [1] [µM],TGI [2] [µM],TGI [3] [µM],TGI [4] [µM],TGI [5] [µM],TGI [6] [µM],TGI [7] [µM],TGI [8] [µM],TGI [9] [µM],TGI [10] [µM],TGI [11] [µM],TGI [12] [µM],TGI [13] [µM],TGI [14] [µM],TGI [15] [µM],TGI [16] [µM],TGI [17] [µM]
N#Cc1cccc(-n2[nH]c(=O)ccc2=O)c1,> 100,> 100,> 100,> 100,> 100,> 100,> 100,> 100,> 100,> 100,> 100,–,–,–,–,–,–
CCN(CC)CCCNC(=O)c1cc(-c2nccn2C)nc2ccccc12,> 100,–,> 100,> 100,> 100,> 100,> 100,> 100,> 100,> 100,> 100,> 100,> 100,> 100,> 100,> 100,–
O=C1/C(=C/c2ccco2)NC(=S)N1CN1CCCCC1,> 100,> 100,> 100,> 100,> 100,–,> 100,> 100,–,> 100,> 100,> 100,> 100,> 100,–,> 100,> 100
COc1ccccc1CC(=O)C(O)(C(F)(F)F)C(F)(F)F,> 100,> 100,> 100,> 100,> 100,> 100,> 100,> 100,> 100,> 100,> 100,> 100,> 100,> 100,–,> 100,> 100
Nc1nc(Cl)cc(OCC2(CO)CC=CC2)n1,–,> 100,> 100,> 100,–,> 100,> 100,> 100,> 100,> 100,> 100,> 100,> 100,> 100,–,> 100,> 100
CCOC(=O)CCCSCCCC(=O)CCCSCCCC(=O)OCC,–,> 100,> 100,> 100,> 100,> 100,> 100,–,> 100,> 100,> 100,> 100,> 100,> 100,> 100,> 100,–
CCOC(=O)c1ccc(-c2cc(C)no2)[nH]1,> 100,–,–,> 100,> 100,> 100,> 100,> 100,> 100,> 100,> 100,> 100,–,29.3,> 100,> 100,–
COc1cccc(-c2cc(=O)c3cc(N4CCCCC4)ccc3[nH]2)c1,> 100,–,> 43.9,> 100,> 100,–,9.55,> 100,–,–,> 100,> 100,> 100,–,–,> 100,> 86.1
